This is an account of results in patent US20260250337A1, “HYBRID ANTIMICROBIAL PEPTIDES” (UNIVERSIDADE FEDERAL DO ABC, priority 2023, published 2026).

No end group written: not given here.

The test system of one data set is skin tissue. Description: Skin tissue histopathological analysis (H&E). The format is in vivo, mice. The conditions noted are these: 24 h after infection and treatment. The procedure: Skin tissue histopathological analysis. […] The fur on the back of the mice was removed and the mice were infected and treated as described in the Skin abscess infection mouse model section. After 24 h, mice were euthanized for tissue collection. Samples were pre-fixed in individual cassettes, then transferred to a container filled with 70% EtOH for slicing and staining. Next, the samples were placed on glass slides for microscopy analysis. We collected the tissue from three mice per condition analyzed.

The test system of a further data set is bacterial strains. Nature of the data set: Antimicrobial activity over the panel of strains. The format is cell-based. The note with it: range over strains tested. The method, then:
Initially, the antimicrobial activity was determined by liquid growth inhibition assays, as previously described by Pedron et al.^62. Briefly, Peptone Broth and Potato Dextrose Broth (Invitrogen) were used for antibacterial and antifungal assays, respectively. Two-fold serial dilutions of peptides (0.09-50 μmol L^−1) and microorganisms (Serratia marcescens ATCC 4112, Enterobacter cloacae β-12, Micrococcus luteus A270, Bacillus megaterium ATCC 10778, Bacillus subtilis ATCC 6633, Candida albicans MDM8, and Candida tropicalis IOC 4560) were incubated at 37° C. for 18 h (for bacteria) or 24 h (for fungi), and microbial growth was assessed by absorbance measurements at 595 nm. Experiments were performed in three biological repeats.
(§1) Method. The minimal inhibitory concentration (MIC) against the ESKAPE pathogens was determined using the broth microdilution method^81, 82 in Luria-Bertani (LB) medium. The MIC value was defined as the lowest concentration of peptide at which no microbial growth was observed. A. baumannii ATCC19606, E. coli ATCC11775, E. coli AIC221, E. coli AIC222, K. pneumoniae ATCC13883, S. aureus ATCC12600 P. aeruginosa PAO1, and P. aeruginosa PA14 were incubated on agar plates, and after 24 h, three isolated colonies were inoculated to 5 mL of Luria-Bertani (LB) broth and maintained at 37° C. overnight with shaking. Peptides were then added to 96-well polystyrene microtiter plates at concentrations ranging from 0 to 128 μmol L^−1, and 5×10^5 CFU mL^−1 of each bacterium was inoculated in each well. The plates were incubated at 37° C. for 24 h. Bacterial growth was measured using a microplate reader at 610 nm. Three independent replicates were performed.

A further data set has as its system P. aeruginosa. Description: MIC against P. aeruginosa. The format is cell-based. The conditions noted are these: strain not given. The procedure: as §1

With “FLGAIGNVLKSIL-NH2 [TV, Phe-Leu-Gly-Ala-Ile-Gly-Asn-Val-Leu-Lys-Ser-Ile-Leu]”, the “tissue morphology / toxicity, H&E staining” value in the data set on skin tissue is on record as “Neither TV nor VmCT1 changed the tissue's morphology”. Regarding “FLGALWNVAKSVF-NH2 [VmCT1, Phe-Leu-Gly-Ala-Len-Trp-Asu-Val-Ala-Lys-Ser-Val-Phe, reference compound]”, the “tissue morphology / toxicity, H&E staining” value in the data set on skin tissue is given as “Neither TV nor VmCT1 changed the tissue's morphology”. In the case of “ILGAILNVLKSLG-NH2 [PV, Ile-Leu-Gly-Ala-Ile-Leu-Asn-Val-Leu-Lys-Ser-Leu-Gly]”, the “MIC range of the peptide over the strains” value in the data set with bacterial strains was in the range of 3.1 to 64 µM. Further, the “MIC against P. aeruginosa” value against P. aeruginosa stood at 128 µM.
